According to paper PMC10600239, “Selective MCL-1 inhibitor ABBV-467 is efficacious in tumor models but is associated with cardiac troponin increases in patients” (Communications Medicine, 2023):
Several values for one entry are separate records, joined by “and”; a condition that tells them apart may be missing. Identical values can stand only once.

Test system: AMO-1 xenografts
Assay: AMO-1 xenograft efficacy (tumor volume, body weight)
Assay type: in vivo, mouse
Set-up: key to Anti-tumor Activity vs. AMO-1 (DSMZ), Median / Anti-tumor Activity vs. AMO-1 (DSMZ), individual animal / Anti-tumor Activity vs. AMO-1 (DSMZ), Mean: tumor volume in mm^3 (length × width^2/2)
Experimental: All animal studies were conducted in accordance with the guidelines approved by the Institutional Animal Care and Use Committees of AbbVie. The research protocol was approved by In Vivo Pharmacology at AbbVie prior to study initiation but was not publicly registered or disclosed. Female C.B-17 SCID-beige mice (AMO-1, OPM-2, NCI-H929, and OCI-AML2 xenografts) and female NSG mice (MV4-11-Red.Fluc systemic) were purchased from Charles River Laboratories (Wilmington, MA). Animals were housed in a light cycle-controlled room with HEPA filtration at 22 °C. Animals had nesting and climbing cage topper as the primary environmental enrichment. Animals were inoculated subcutaneously in the right flank with 5 × 10^6 (AMO-1, OPM-2, NCI-H929, and OCI-AML2) or intravenous (IV) with 5 × 10^6 (MV4-11-Red.Fluc). The inoculation volume (0.2 mL) comprised a 50:50 mixture of cells in growth media and Matrigel (BD Biosciences) for subcutaneous injections and 100% phosphate-buffered saline for IV administration. All cell lines used in this publication were authenticated using IDEXX for STR profiling as well as their IMPACT and human IMPACT panels for pathogen screening. Electronic calipers were used to measure the length and width of each tumor 2 to 3 times per week. Tumor volume was estimated by applying the following equation: volume = length × width^2/2. All groups remained blinded during measurements and dosing; only veterinary staff were aware of group identity. When tumors reached approximately 200 mm^3, mice were randomized by match and distributed into treatment and control groups. All xenograft trials were conducted using 5 to 10 mice per group, and all mice were ear tagged and monitored individually throughout the studies. […] Tumor burden in the systemic MV4-11-Red.Fluc experiment was measured using an IVIS® spectrum from PerkinElmer by taking the total photon flux of the entire dorsal side of an individual mouse. […] A background control mouse that was tumor naive but received D-Luciferin was placed in the upper left corner of each image. The total flux from this animal was subtracted from the total flux of each animal present in the image.
For in vivo studies, maximal tumor growth inhibition (TGI) was calculated as the greatest treatment response using the following equation: Maximal TGI = (1 − mean tumor volume of the treated group/mean tumor volume of the vehicle control group) × 100. The tumor growth delay (TGD) percentage was determined as the percentage increase of the median time period for the treatment group to reach an arbitrary tumor volume of 1000 mm^3 relative to the vehicle control group. […] A power analysis was conducted using historical data to determine the number of animals required to yield significance of 0.05 at a 30% difference. […] Data from experiments in vivo were analyzed using the student’s t-test for TGI values and the Mann–Whitney U test for TGD using Excel and GraphPad Prism. Fisher’s exact test was used to probe significance of differences in response frequency.

[1] = 3.13 mg/kg IV QDx1, Day 13 (day before dosing begins)
[2] = 3.13 mg/kg QDx1 IV, Day 26, n=8

## Cc1c(Cl)c2c(Cl)c(C)c1-c1c(-c3ccc(F)cc3)sc3ncnc(c13)O[C@@H](C(=O)O)Cc1cc(ccc1OCc1ccnc(-c3ccc(OC[C@H]4COCCO4)cc3)n1)OC[C@@H](CN1CCN(C)CC1)O2 [Compound A-1747745.0]
3.13 mg/kg IV QDx1, AMO-1 xenograft, SCID-beige mice, in g (unit assumed)
  Starting Body Wt.: 21.625
3.13 mg/kg IV QDx1, clinical observation
  % Mortality: 100.00%
3.13 mg/kg IV QDx1, day 13
  Anti-tumor Activity vs. AMO-1 (DSMZ), Mean: 216.27
  Anti-tumor Activity vs. AMO-1 (DSMZ), Median: 216.30
  Anti-tumor Activity vs. AMO-1 (DSMZ), individual animal: 219 and 210 and 215 and 217 and 224 and 221 and 209 and 214
3.13 mg/kg IV QDx1, day 14
  Group Mean, Body Weight: 21.63 g
3.13 mg/kg IV QDx1, day 16
  Anti-tumor Activity vs. AMO-1 (DSMZ), Mean: 205.11
  Anti-tumor Activity vs. AMO-1 (DSMZ), Median: 207.59
  Anti-tumor Activity vs. AMO-1 (DSMZ), individual animal: 195 and 171 and 227 and 217 and 219 and 212 and 203 and 196
3.13 mg/kg IV QDx1, day 19
  Anti-tumor Activity vs. AMO-1 (DSMZ), Mean: 192.25
  Anti-tumor Activity vs. AMO-1 (DSMZ), Median: 202.67
  Anti-tumor Activity vs. AMO-1 (DSMZ), individual animal: 210 and 196 and 181 and 173 and 128 and 213 and 209 and 227
3.13 mg/kg IV QDx1, day 21
  Anti-tumor Activity vs. AMO-1 (DSMZ), Mean: 316.72
  Anti-tumor Activity vs. AMO-1 (DSMZ), Median: 336.29
  Anti-tumor Activity vs. AMO-1 (DSMZ), individual animal: 248 and 370 and 418 and 238 and 111 and 349 and 477 and 324
3.13 mg/kg IV QDx1, day 23
  Anti-tumor Activity vs. AMO-1 (DSMZ), Mean: 463.98
  Anti-tumor Activity vs. AMO-1 (DSMZ), Median: 467.27
  Anti-tumor Activity vs. AMO-1 (DSMZ), individual animal: 595 and 419 and 553 and 359 and 205 and 462 and 647 and 473
  Group Mean, Body Weight: 22.13 g
3.13 mg/kg IV QDx1, day 26
  Anti-tumor Activity vs. AMO-1 (DSMZ), Mean: 740.25
  Anti-tumor Activity vs. AMO-1 (DSMZ), Median: 757.36
  Anti-tumor Activity vs. AMO-1 (DSMZ), individual animal: 859 and 654 and 702 and 664 and 464 and 884 and 882 and 812
3.13 mg/kg IV QDx1, day 28
  Anti-tumor Activity vs. AMO-1 (DSMZ), Mean: 1102.63
  Anti-tumor Activity vs. AMO-1 (DSMZ), Median: 1024.93
  Anti-tumor Activity vs. AMO-1 (DSMZ), individual animal: 1383 and 753 and 968 and 881 and 872 and 1157 and 1725 and 1082
  Group Mean, Body Weight: 22.38 g
3.13 mg/kg IV QDx1, day 30
  Anti-tumor Activity vs. AMO-1 (DSMZ), Mean: 1440.23
  Anti-tumor Activity vs. AMO-1 (DSMZ), Median: 1430.49
  Anti-tumor Activity vs. AMO-1 (DSMZ), individual animal: 1812 and 984 and 1324 and 1150 and 1149 and 1537 and 1916 and 1649
3.13 mg/kg IV QDx1, day 34
  Anti-tumor Activity vs. AMO-1 (DSMZ), Mean: 2233.47
  Anti-tumor Activity vs. AMO-1 (DSMZ), Median: 2203.67
  Anti-tumor Activity vs. AMO-1 (DSMZ), individual animal: 2874 and 1660 and 1699 and 1719 and 1802 and 2605 and 2742 and 2768
[1]
  Xenograft AMO-1 (DSMZ) tumor volume Day 13, Mean: 216.27 mm³
  Xenograft AMO-1 (DSMZ) tumor volume Day 13, Median: 216.30 mm³
3.13 mg/kg IV QDx1, Day 13 (day before dosing begins), mean(T)/mean(C)
  % T/C (mean): 100.07%
3.13 mg/kg IV QDx1, Day 13 (day before dosing begins), median(T)/median(C)
  % T/C (median): 100.06%
3.13 mg/kg IV QDx1, SCID-beige female mice, Day 13 (randomization, day before dosing begins)
  Xenograft AMO-1 (DSMZ) (mm³) Day 13, individual animals: 219 mm³ and 210 mm³ and 215 mm³ and 217 mm³ and 224 mm³ and 221 mm³ and 209 mm³ and 214 mm³
[2]
  Xenograft AMO-1 (DSMZ) tumor volume Day 26, Mean: 740.25 mm³
  Xenograft AMO-1 (DSMZ) tumor volume Day 26, Median: 757.36 mm³
